Experimental data: US5942494A, “Stimulation of gene expression and synthesis of heat shock protein 72/73 (HSP 70)” (The Trustees of Columbia University in the City of New York, priority 1996, dated 1999)
Square brackets hold non-standard residues; d marks the D form. Peptide text beside a SMILES is read from it. Nle = CCCC[C@H](N)C(=O)O

Columns and labels:
Hsp70 [1] = assay: Hsp70 levels by denaturing immunoprecipitation of [3H]-leucine radiolabeled HepG2 cells; format: cell-based, human; conditions: for Hsp70 levels after removal of ALLN: 4-hour preincubation
Method: The HepG2 cell culture conditions were maintained as previously described (Dixon, et al., 1991). The cells were seeded into collagen-pre-coated dishes or six-well tissue culture plates and grown in complete medium containing minimum essential medium (MEM) with 0.1 mM nonessential amino acids, 1.0 mM sodium pyruvate, penicillin/streptomycin, and 10% fetal bovine serum. Cells were fed fresh complete medium every 3 days and maintained in a 5% CO2 incubator. All experiments were performed by using exponentially growing cells at 90-95% confluency. For heat shock treatment, the dishes were sealed with Parafilm and immersed in a water bath at 42° C. for indicated durations of time. Cells were incubated with ALLN alone at indicated concentrations or combined with other chemicals at 37° C. Cells were also incubated with different protease inhibitors alone at indicated concentrations or combined with other chemicals at 37° C.
HepG2 cells were preincubated for 4 hours in serum-free MEM and then radiolabeled with ^3 H-Leucine (150 μCi/ml) in a serum-free, leucine-free medium. Preincubation and labeling media each contained either 1.5% bovine serum albumin (BSA) alone, or BSA plus ALLN (40 μg/ml except as otherwise indicated), or BSA plus other protease inhibitors at concentrations indicated in the figure legends. At the indicated times, cells were removed from the 37° C. incubator and placed on ice, washed with cold phosphate-buffer saline (PBS) twice and lysed with lysis buffer containing 1% Triton X-100 (TX100), 1% deoxycholic acid (DOC) and 0.1% SDS in PBS containing proteinase inhibitors: 2 mM phenylmethylsulfonyl fluoride (PMSF); 2 μg/ml ALLN; 2 μg/ml leupeptin; and 2 μg/ml aprotinin. After a 30 min. incubation with lysis buffer at 4° C., the lysates were centrifuged at 14,000 g in a microcentrifuge for 5 min., and the supernatants were adjusted to 1% SDS concentration and boiled for 5 min. to denature the proteins. 1% TX100 was then added to dilute the lysates to a final concentration of 0.1% SDS. Cell lysates containing equal amounts of trichloroacetic acid (TCA)-insoluble radioactivity were used for immunoprecipitations by incubating with individual monoclonal antibody (1 μg/ml) for 2.5 hours at 4° C. Protein-A Sepharose 4B was added afterwards and the lysates incubated for another 1.5 hours at 4° C. to collect the immunocomplexes. After washing four times with 1×NET buffer (containing 0.5% TX100, 0.1% SDS), the immunocomplexes were mixed with sample buffer and boiled for 5 min. Following centrifugation, the supernatants were aliquoted for scintillation counting and for 3-15% gradient polyacrymide gel electrophoresis (SDS-PAGE) . The gels were later subjected to fluorography. All values are presented as the mean ± S.D. from three individual experiments except as otherwise indicated.
Denaturing immunoprecipitation was chosen because Hsp70 is a major cytosolic chaperone protein and it is co-immunoprecipitated with a number of other proteins under non-denaturingconditions (Beckmann, et al., 1990; Zhou, et al., 1995).

Hsp70 [2] = assay: Cellular Hsp70 levels in CHO cells; format: cell-based, Chinese hamster
apoB = conditions: Sakata, et al., 1993, unpublished data; cited from earlier work
cathepsin B = cathepsin B (Homo sapiens, UniProt P07858); conditions: Rock, et al., 1994; cited from earlier work

In the case of `CCCC[C@@H](C=O)NC(=O)[C@H](CC(C)C)NC(=O)[C@H](CC(C)C)NC(C)=O` [ALLN, N-acetyl-leucyl-leucyl-norleucinal] (Ac-Leu-Leu-[Nle]-aldehyde), the “Hsp70 levels after removal of ALLN” value (Hsp70 [1]; end of a 2-hour wash) is reported as 25 fold, the “Hsp70 levels after removal of ALLN” value (Hsp70 [1]; end of a 6-hour wash) is reported as 8 fold and the “Hsp70 levels after removal of ALLN” value (Hsp70 [1]; end of an 8-hour wash) is reported as 4 fold. The “Increment of newly synthesized Hsp70 levels compared with untreated cells” value (Hsp70 [1]; 30 min. labeling, data from several experiments) was ~30 fold, the Hsp70 levels induced (Hsp70 [1]; ALLN 10 μg/ml, 4 hours pre-treatment, HepG2) was “more than 9 fold” and the “Increase of rate of incorporation of [3H]-leucine into Hsp70” value (Hsp70 [1]; ALLN 40 μg/ml 4 hours preincubation, labeling 10-60 min, every time point) was “about 25 fold”. For the same compound, the “Induction of Hsp70 by protease inhibitors” value (Hsp70 [1]; HepG2, 4 hours pre-treatment, ALLN, ALLM 40 μg/ml, leupeptin, pepstatin A 50 μg/ml, E-64d 25 μg/ml, PMSF 1 mM, aprotinin 100 KIU/ml, Benz 1 mM, CIP 200 μM) was “significantly induce”, the “Induction of Hsp70 levels above baseline” value (Hsp70 [1]; HepG2 cells and human endothelial cells, maximal induction) was “up to 30 fold” and the “Response of cellular Hsp70 levels” value (Hsp70 [2]) was “increasing cellular Hsp70 levels”. For the same compound, the “Protection of apoB” value (apoB) was “protected” and the “Activity against cathepsin B” value (cathepsin B) was “significant activities”.
